Measurements taken from patent publication US20250034135A1, “ANTI-APOPTOTIC PROTEIN BCL-2 INHIBITOR, PHARMACEUTICAL COMPOSITION AND USES THEREOF” (HANGZHOU HEALZEN THERAPEUTICS CO., LTD., priority 2021, published 2025).
Read-outs that look alike come from different tables or passages of the source.

What was measured:
BCL2 = BCL2 (Homo sapiens (Human), UniProt P10415); experiment: Molecular level activity test of anti-apoptotic protein BCL2 (HTRF, binding to Bim peptide); conditions: HTRF, binding of BCL2 to Bim peptide; read-out: BCL2 nM (inhibitory activity, IC50)
Outline: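 Disruption of the BCL2/Bim peptide interaction is detected by homogeneous time-resolved fluorescence, using anti-His and streptavidin-XL665 reagents against His-tagged protein and biotin-tagged peptide. Compound exposure lasts 1 h before reagent addition; plates then sit 4 h at room temperature.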

BCL2 (G101V) = BCL2 (G101V) (Homo sapiens (Human), UniProt P10415, G101V); experiment: Molecular level activity test of anti-apoptotic protein BCL2 (G101V) (HTRF, binding to Bim peptide); conditions: inhibition of BCL2 (G101V) binding to Bim peptide, read-out: BCL-2 (G101V)
Method: The detection of the binding ability between anti-apoptotic protein BCL2 (G101V) and pro-apoptotic protein Bim was performed using Homogeneous Time-Resolved Fluorescence technology. The reaction of this method occurred in a white shallow 384-well plate, with a total reaction volume of 10 μL. Specifically, it included 2 μL of the compound to be tested (2% DMSO), 4 μL His-tagged recombinant protein, and 4 μL Biotin-tagged BIM protein peptide. After 1 hour of reaction, […] of each Anti-His and streptavidin-tagged XL665 antibody diluents diluted with a detection buffer were added. After incubating at room temperature for 4 hours, the values were read using the Envision multifunctional microplate reader to detect the effect of the compound to be tested on the binding ability of BCL2 (G101V) to BIM protein peptides.

BCL-XL = BCL-XL (Homo sapiens (Human), UniProt Q07817); experiment: BCL-XL enzyme molecular level activity test (HTRF, binding to BIM peptide); conditions: binding of BCL-XL to BIM peptide, read-out: BCL-XL inhibitory activity (IC50)
Sequence of BCL-XL (Q07817 whole entry): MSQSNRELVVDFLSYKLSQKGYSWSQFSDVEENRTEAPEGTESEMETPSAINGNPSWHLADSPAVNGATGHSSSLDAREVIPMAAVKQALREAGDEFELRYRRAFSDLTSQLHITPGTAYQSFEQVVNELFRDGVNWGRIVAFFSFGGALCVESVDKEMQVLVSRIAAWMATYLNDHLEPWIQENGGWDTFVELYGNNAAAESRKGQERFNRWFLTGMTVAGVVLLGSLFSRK
Method: In a white shallow 384-well plate, a total reaction volume was 10 μL. Specifically, it included 2 μL of the compound to be tested (2% DMSO), […] His-tagged recombinant protein, and 4 μL Biotin-tagged BIM protein peptide. After 1 hour of reaction, 5 μL of each Anti-His and streptavidin-tagged XL665 antibody diluents diluted with a detection buffer were added. After incubating at room temperature for 4 hours, the values were read using the Envision multifunctional microplate reader to detect the effect of the compound to be tested on the binding ability of BCL-XL to BIM protein peptides. The Envision parameter settings were exciting light at 320 nm, and emitting light at 615 nm and 665 nm. The binding ability of anti-apoptotic proteins to Bim protein peptides was indirectly reflected by the signal ratio of 665 nm and 615 nm. In the reaction, background wells without BCL2 and active wells for full binding of recombinant proteins without compounds and Bim protein peptides were set up.

Compound	IC50 (BCL2)	IC50 (BCL2 (G101V))	IC50 (BCL-XL; values given in μM)	IC50 (BCL-XL; values in nM)
COc1ccc(CN2CCN(C3CC4(CCN(c5cc(Oc6cnc7[nH]cc(F)c7c6)c(C(=O)NS(=O)(=O)c6ccc(NCC7(F)CCN(C(C)C)CC7)c([N+](=O)[O-])c6)cc5F)CC4)C3)C(c3ccccc3C(C)C)C2)cc1 (stereo not shown) [compound 062]	< 10 nM	< 10 nM	> 1 µM	
COc1cccc(CN2CCN(C3CC4(CCN(c5cc(Oc6cnc7[nH]ccc7c6)c(C(=O)NS(=O)(=O)c6ccc(NCC7(F)CCOCC7)c([N+](=O)[O-])c6)cc5F)CC4)C3)[C@H](c3ccccc3C(C)C)C2)c1 [compound 184, (R)-2-((1H-pyrrolo[2,3-b]pyrid-5-yl)oxy)-5-fluoro-N-((4-(((4-fluorotetrahydro-2H-pyran-4-yl)methyl)amino)-3-nitrophenyl)sulfonyl)-4-(2-(2-(2-isopropylphenyl)-4-(3-methoxybenzyl)piperazin-1-yl)-7-azaspiro[3.5]non-7-yl)benzamide]	< 10 nM	< 10 nM		> 0.5 µM
CC(C)c1ccccc1[C@@H]1CN(Cc2ccc(C(F)(F)F)cc2)CCN1C1CC2(CCN(c3cc(Oc4cnc5[nH]ccc5c4)c(C(=O)NS(=O)(=O)c4ccc(NCC5(F)CCOCC5)c([N+](=O)[O-])c4)cc3F)CC2)C1 [compound 188, (R)-2-((1H-pyrrolo[2,3-b]pyrid-5-yl)oxy)-5-fluoro-N-((4-(((4-fluorotetrahydro-2H-pyran-4-yl)methyl)amino)-3-nitrophenyl)sulfonyl)-4-(2-(2-(2-isopropylphenyl)-4-(4-(trifluoromethyl)benzyl)piperazin-1-yl)-7-azaspiro[3.5]non-7-yl)benzamide]	< 10 nM			> 0.5 µM
CC(C)c1ccc(CN2CCN(C3CC4(CCN(c5cc(Oc6cnc7[nH]ccc7c6)c(C(=O)NS(=O)(=O)c6ccc(NCC7(F)CCOCC7)c([N+](=O)[O-])c6)cc5F)CC4)C3)[C@H](c3ccccc3C(C)C)C2)cc1 [compound 193, (R)-2-((1H-pyrrolo[2,3-b]pyrid-5-yl)oxy)-5-fluoro-N-((4-(((4-fluorotetrahydro-2H-pyran-4-yl)methyl)amino)-3-nitrophenyl)sulfonyl)-4-(2-(4-(4-isopropylbenzyl)-2-(2-isopropylphenyl)piperazin-1-yl)-7-azaspiro[3.5]non-7-yl)benzamide]	< 10 nM			> 0.5 µM
CC(C)c1ccccc1[C@@H]1CN(Cc2ccc(C3CC3)cc2)CCN1C1CC2(CCN(c3cc(Oc4cnc5[nH]ccc5c4)c(C(=O)NS(=O)(=O)c4ccc(NCC5(F)CCOCC5)c([N+](=O)[O-])c4)cc3F)CC2)C1 [compound 195, (R)-2-((1H-pyrrolo[2,3-b]pyrid-5-yl)oxy)-4-(2-(4-(4-cyclopropylbenzyl)-2-(2-isopropylphenyl)piperazin-1-yl)-7-azaspiro[3.5]non-7-yl)-5-fluoro-N-((4-(((4-fluorotetrahydro-2H-pyran-4-yl)methyl)amino)-3-nitrophenyl)sulfonyl)benzamide]	< 10 nM			> 0.5 µM
CC(C)c1ccccc1[C@@H]1CN(Cc2cccc3c2OCO3)CCN1C1CC2(CCN(c3cc(Oc4cnc5[nH]ccc5c4)c(C(=O)NS(=O)(=O)c4ccc(NCC5(F)CCOCC5)c([N+](=O)[O-])c4)cc3F)CC2)C1 [compound 204, (R)-2-((1H-pyrrolo[2,3-b]pyrid-5-yl)oxy)-4-(2-(4-(benzo[d][1,3]dioxocyclopent-4-ylmethyl)-2-(2-isopropylphenyl)piperazin-1-yl)-7-azaspiro[3.5]non-7-yl)-5-fluoro-N-((4-(((4-fluorotetrahydro-2H-pyran-4-yl)methyl)amino)-3-nitrophenyl)sulfonyl)benzamide]	< 10 nM			> 0.5 µM
COc1ccc(CN2CCN(C3CC4(CCN(c5cc(Oc6cnc7[nH]ccc7c6)c(C(=O)NS(=O)(=O)c6ccc(NCC7(F)CCOCC7)c([N+](=O)[O-])c6)cc5F)CC4)C3)[C@H](c3ccccc3C(C)C)C2)c2c1OCO2 [compound 205]	< 10 nM			> 0.5 µM
CC(C)c1ccccc1[C@@H]1CN(Cc2ccc3c(c2)OCCO3)CCN1C1CC2(CCN(c3cc(Oc4cnc5[nH]ccc5c4)c(C(=O)NS(=O)(=O)c4ccc(NCC5(F)CCOCC5)c([N+](=O)[O-])c4)cc3F)CC2)C1 [compound 207, (R)-2-((1H-pyrrolo[2,3-b]pyrid-5-yl)oxy)-4-(2-(4-((2,3-dihydrobenzo[b][1,4]dioxane-6-yl)methyl)-2-(2-isopropylphenyl)piperazin-1-yl)-7-azaspiro[3.5]non-7-yl)-5-fluoro-N-((4-(((4-fluorotetrahydro-2H-pyran-4-yl)methyl)amino)-3-nitrophenyl)sulfonyl)benzamide]	< 10 nM			> 0.5 µM
CC(C)c1ccccc1[C@@H]1CN(Cc2ccc(C(F)(F)F)cc2)CCN1C1CC2(CCN(c3cc(Oc4cnc5[nH]ccc5c4)c(C(=O)NS(=O)(=O)c4ccc(NC[C@H]5CC[C@](C)(O)CC5)c([N+](=O)[O-])c4)cc3F)CC2)C1 [compound 216, 2-((1H-pyrrolo[2,3-b]pyrid-5-yl)oxy)-5-fluoro-N-((4-((((1r, 4r)-4-hydroxy-4-methylcyclohexyl)methyl)amino)-3-nitrophenyl)sulfonyl)-4-(2-((R)-2-(2-isopropylphenyl)-4-(4-(trifluoromethyl)benzyl)piperazin-1-yl)-7-azaspiro[3.5]non-7-yl)benzamide]	< 10 nM			> 0.5 µM
CC(C)c1ccccc1[C@@H]1CN(Cc2c(F)cccc2F)CCN1C1CC2(CCN(c3cc(Oc4cnc5[nH]ccc5c4)c(C(=O)NS(=O)(=O)c4ccc(NC[C@H]5CC[C@](C)(O)CC5)c([N+](=O)[O-])c4)cc3F)CC2)C1 [compound 217, 2-((1H-pyrrolo[2,3-b]pyrid-5-yl)oxy)-4-(2-((R)-4-(2,6-difluorobenzyl)-2-(2-isopropylphenyl)piperazin-1-yl)-7-azaspiro[3.5]non-7-yl)-5-fluoro-N-((4-((((1r, 4r)-4-hydroxy-4-methylcyclohexyl)methyl)amino)-3-nitrophenyl)sulfonyl)benzamide]	< 10 nM			> 0.5 µM
CC(C)c1ccccc1[C@@H]1CN(Cc2ccc3c(c2)OCO3)CCN1C1CC2(CCN(c3cc(Oc4cnc5[nH]ccc5c4)c(C(=O)NS(=O)(=O)c4ccc(NC[C@H]5CC[C@](C)(O)CC5)c([N+](=O)[O-])c4)cc3F)CC2)C1 [compound 224, 2-((1H-pyrrolo[2,3-b]pyrid-5-yl)oxy)-4-(2-((R)-4-(benzo[d][1,3]dioxocyclopent-5-ylmethyl)-2-(2-isopropylphenyl)piperazin-1-yl)-7-azaspiro[3.5]non-7-yl)-5-fluoro-N-((4-((((1r, 4r)-4-hydroxy-4-methylcyclohexyl)methyl)amino)-3-nitrophenyl)sulfonyl)benzamide]	< 10 nM			> 0.5 µM
CC(C)c1ccccc1[C@@H]1CN(Cc2ccc3c(c2)OCCO3)CCN1C1CC2(CCN(c3cc(Oc4cnc5[nH]ccc5c4)c(C(=O)NS(=O)(=O)c4ccc(NC[C@H]5CC[C@](C)(O)CC5)c([N+](=O)[O-])c4)cc3F)CC2)C1 [compound 226, 2-((1H-pyrrolo[2,3-b]pyrid-5-yl)oxy)-4-(2-((R)-4-((2,3-dihydrobenzo[b][1,4]dioxane-6-yl)methyl)-2-(2-isopropylphenyl)piperazin-1-yl)-7-azaspiro[3.5]non-7-yl)-5-fluoro-N-((4-((((1r, 4r)-4-hydroxy-4-methylcyclohexyl)methyl)amino)-3-nitrophenyl)sulfonyl)benzamide]	< 10 nM			> 0.5 µM
CC(C)c1ccccc1[C@@H]1CN(Cc2cccc3c2OCCO3)CCN1C1CC2(CCN(c3cc(Oc4cnc5[nH]ccc5c4)c(C(=O)NS(=O)(=O)c4ccc(NC[C@H]5CC[C@](C)(O)CC5)c([N+](=O)[O-])c4)cc3F)CC2)C1 [compound 227, 2-((1H-pyrrolo[2,3-b]pyrid-5-yl)oxy)-4-(2-((R)-4-((2,3-dihydrobenzo[b][1,4]dioxane-5-yl)methyl)-2-(2-isopropylphenyl)piperazin-1-yl)-7-azaspiro[3.5]non-7-yl)-5-fluoro-N-((4-((((1r, 4r)-4-hydroxy-4-methylcyclohexyl)methyl)amino)-3-nitrophenyl)sulfonyl)benzamide]	< 10 nM			> 0.5 µM
